Source: US8642548B2 (Mannkind Corporation, priority 2009, dated 2014)

Test: Phase 1a trial of GLP-1/FDKP inhalation powder: insulin, glucose, gastric emptying
Format: in vivo, human

For CC[C@H](C)[C@H](NC(=O)[C@H](Cc1ccccc1)NC(=O)[C@H](CCC(=O)O)NC(=O)[C@H](CCCCN)NC(=O)[C@H](C)NC(=O)[C@H](C)NC(=O)[C@H](CCC(N)=O)NC(=O)CNC(=O)[C@H](CCC(=O)O)NC(=O)[C@H](CC(C)C)NC(=O)[C@H](Cc1ccc(O)cc1)NC(=O)[C@H](CO)NC(=O)[C@H](CO)NC(=O)[C@@H](NC(=O)[C@H](CC(=O)O)NC(=O)[C@H](CO)NC(=O)[C@@H](NC(=O)[C@H](Cc1ccccc1)NC(=O)[C@@H](NC(=O)CNC(=O)[C@H](CCC(=O)O)NC(=O)[C@H](C)NC(=O)[C@@H](N)Cc1c[nH]cn1)[C@@H](C)O)[C@@H](C)O)C(C)C)C(=O)N[C@@H](C)C(=O)N[C@@H](Cc1c[nH]c2ccccc12)C(=O)N[C@@H](CC(C)C)C(=O)N[C@H](C(=O)N[C@@H](CCCCN)C(=O)NCC(=O)N[C@@H](CCCNC(=N)N)C(N)=O)C(C)C [GLP-1, glucagon-like peptide 1], the “mean fasting plasma glucose” value (1.5 mg GLP-1 inhaled, 20 min after dosing, from 85 mg/dL) was 70 mg/dL and the “inhibition of gastric emptying” value (pulmonary administration, dry powder, data not shown) was “lack inhibition of gastric emptying”.
